Experimental data published in PubChem BioAssay AID588782 (Southern Research Specialized Biocontainment Screening …, 2011).
Several values for one entry are separate records, joined by “and”; a condition that tells them apart may be missing. Identical values can stand only once. Activity calls are given as the source filed them.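 Rule for the calls: active = virus-caused cell damage raised over twofold versus untreated cells in three repeats, without toxicity at overlapping doses; inactive = the rest.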

Test system: PC3 cells, HSV G47-delta CPE, CellTiter-Glo, 96 h
Assay: enhancers of oncolytic HSV cytopathic effect, confirmation, PC3 cells, CellTiter-Glo, secondary (AID 588782);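 for CPE increase: percent rise in virus-caused cell damage over infected cultures given no drug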
Settings: for outcome / CPE increase: at 10 µM; for CC50: measured here: PC3 cytotoxicity; for CPE increase: stronger effect = higher value

| SMILES | outcome | CC50 | CPE increase |
| --- | --- | --- | --- |
| COc1ccc(C(=O)NCCCN2CCCN(C)CC2)cc1 | inactive | > 100 µM |  |
| COc1cc(C(=O)OCCCN2CCOCC2)cc(OC)c1OC | inactive | > 100 µM |  |
| CN1CCCN(CCCOC(=O)c2ccc(F)cc2)CC1 | inactive | > 100 µM |  |
| O=C(NCCCN1CCN(CCCNC(=O)c2ccc3c(c2)OCO3)CC1)c1ccc2c(c1)OCO2 |  | > 100 µM | 14.4% (inactive) |
| O=C(OCCCN1CCN(CCCOC(=O)c2ccc(F)cc2)CC1)c1ccc(F)cc1 | inactive | > 100 µM |  |
| COc1cc(OC)cc(C(=O)OCCN2CCCN(C)CC2)c1 | inactive | > 100 µM |  |
| COc1cc(OC)cc(C(=O)OCCCN2CCN(C)CC2)c1 | inactive | > 100 µM |  |
| CN1CCCN(CCCOC(=O)c2ccccc2)CC1 | inactive | > 100 µM |  |
| CNCCN(C)CCCOC(=O)c1ccc(OC)cc1 | inactive | > 100 µM |  |
| COc1cc(NC(=O)N2CCCN(C(=O)Nc3cc(OC)c(OC)c(OC)c3)CC2)cc(OC)c1OC |  | > 100 µM | 24.5% (inactive) |
| COc1cc(OC)cc(C(=O)OCCCN2CCN(CCCOC(=O)c3cc(OC)cc(OC)c3)CC2)c1 | inactive | > 94 µM |  |
| O=C(CN1CCCN(CC(=O)CN2C(=O)c3ccccc3C2=O)CC1)CN1C(=O)c2ccccc2C1=O | inactive | > 100 µM |  |
| COc1cc(OC)cc(C(=O)OCCCNCCNCCCOC(=O)c2cc(OC)cc(OC)c2)c1 |  | 32.1 µM | 15.8% (inactive) |
| CNCCN(C)CCCOC(=O)c1ccc(F)cc1 | inactive | > 100 µM |  |
| COc1ccc(C(=O)OCCN2CCCN(C)CC2)cc1 |  | > 100 µM | 27.1% (inactive) |
| COc1cc(C(=O)N2CCCN(C(=O)c3cc(OC)c(OC)c(OC)c3)CC2)cc(OC)c1OC | inactive | > 100 µM |  |
| O=C(CCN1CCCN(CCC(=O)Nc2ccccc2)CC1)Nc1ccccc1 | inactive | > 100 µM |  |
| COc1cc(C(=O)OCCN2CCOCC2)cc(OC)c1OC | inactive | > 100 µM |  |
| COc1cc(OC)cc(C(=O)OCCN2CCN(CCOC(=O)c3cc(OC)cc(OC)c3)CC2)c1 | inactive | > 100 µM |  |
| O=C(OCCCN1CCCN(CCCOC(=O)c2ccccc2)CC1)c1ccccc1 | inactive | > 100 µM |  |
| COc1ccc(C(=O)OCCCN2CCCC2)cc1 | inactive | > 100 µM |  |
| COc1ccc(C(=O)OCCN2CCCN(Cc3ccccc3)CC2)cc1 | inactive | > 100 µM |  |
| COc1ccc(C(=O)OCCCN2CCOCC2)cc1 |  | > 100 µM | 16.9% (inactive) |
| COc1cc(COCCCN2CCCN(CCCOCc3cc(OC)c(OC)c(OC)c3)CC2)cc(OC)c1OC | inactive | > 100 µM |  |
| COc1cc(C(=O)OCCCN(C)CCN(C)CCCOC(=O)c2cc(OC)c(OC)c(OC)c2)cc(OC)c1OC | inactive | > 100 µM |  |

| SMILES | outcome | CC50 | CPE increase |
| --- | --- | --- | --- |
| COc1ccc(N2C(=O)CC(N3CCCN(C4CC(=O)N(c5ccc(OC)cc5)C4=O)CC3)C2=O)cc1 (configuration not stated) | inactive | > 100 µM |  |
| COc1cc(NC(=O)Nc2cc(OC)c(OC)c(OC)c2)cc(OC)c1OC | inactive | > 100 µM |  |
| COc1ccc(C(=O)OCCN2CCN(CCOC(=O)c3ccc(OC)cc3)CC2)cc1 | inactive | > 100 µM |  |
| COc1cc(-c2cn(CCCN3CCCN(CCCn4cc(-c5cc(OC)c(OC)c(OC)c5)nn4)CC3)nn2)cc(OC)c1OC | inactive | > 100 µM |  |
| CNCCN(C)CCOC(=O)c1cc(OC)cc(OC)c1 | inactive | > 100 µM |  |
| CC(=O)NCCCN1CCCN(CCCNC(C)=O)CC1 | inactive | > 100 µM |  |
| CNCCN(C)CCOC(=O)c1cc(OC)c(OC)c(OC)c1 | inactive | > 100 µM |  |
| COc1ccc(C(=O)OCCCN2CCN(CCCOC(=O)c3ccc(OC)cc3)CC2)cc1 | inactive | > 100 µM |  |
| COc1cc(C(=O)OCCN2CCCC2)cc(OC)c1OC | inactive | > 100 µM |  |
| COc1cccc(C(=O)NCCCN2CCN(CCCNC(=O)c3cccc(OC)c3)CC2)c1 | inactive | > 100 µM |  |
| COc1cc(OC)cc(C(=O)OCCN2CCN(C)CC2)c1 | inactive | > 100 µM |  |
| COc1ccc(C(=O)OCCCN2CCCN(C)CC2)cc1 | inactive | > 100 µM |  |
| COc1cc(OC)cc(C(=O)OCCCN2CCCN(C)CC2)c1 | inactive | > 100 µM |  |
| COc1cc(C(=O)OCCCN2CCCN(C)CC2)cc(OC)c1OC | inactive | > 100 µM |  |
| COc1cc(C(=O)OCCCN2CCCN(CCCOC(=O)c3cc(OC)c(OC)c(OC)c3)CC2)cc(OC)c1OC | inactive | > 100 µM |  |
| COc1cc(C(=O)OCCCN2CCCN(C(=O)OC(C)(C)C)CC2)cc(OC)c1OC | inactive | > 100 µM |  |
| COc1cc(C(=O)OCCCN2CCCN(CCOC(=O)c3cc(OC)c(OC)c(OC)c3)CC2)cc(OC)c1OC | inactive | > 100 µM |  |
| COc1cc(OC)cc(C(=O)OCCN2CCCN(CCOC(=O)c3cc(OC)cc(OC)c3)CC2)c1 | inactive | > 100 µM |  |
| COc1cc(C(=O)OCCCN2CCCN(C(=O)c3ccccc3)CC2)cc(OC)c1OC | inactive | > 100 µM |  |
| O=C(OCCCN1CCOCC1)c1ccc(F)cc1 | inactive | > 100 µM |  |
| COc1cc(C(=O)OCCN2CCCN(Cc3ccccc3)CC2)cc(OC)c1OC | inactive | > 100 µM |  |
| O=C(OCCCN1CCCN(CCCOC(=O)c2ccc(F)cc2)CC1)c1ccc(F)cc1 | inactive | 66.9 µM |  |
| COc1cc(C(=O)OCCCN2CCCN(C(C)=O)CC2)cc(OC)c1OC | inactive | > 100 µM |  |
| COc1cc(C(=O)OCCN2CCN(CCOC(=O)c3cc(OC)c(OC)c(OC)c3)CC2)cc(OC)c1OC | inactive | > 100 µM |  |
| O=C(CNc1ccc(F)cc1)CN1CCCN(CC(=O)Nc2ccc(F)cc2)CC1 | inactive | > 100 µM |  |

| SMILES | outcome | CC50 | CPE increase |
| --- | --- | --- | --- |
| COc1ccc(C(=O)OCCN2CCN(C)CC2)cc1 | inactive | > 100 µM |  |
| COc1cc(C(=O)OCCCN2CCCNCC2)cc(OC)c1OC | inactive | > 100 µM |  |
| COc1cc(OC)cc(C(=O)OCCCN2CCCN(Cc3ccccc3)CC2)c1 | inactive | > 100 µM |  |
| O=C(OCCCN1CCN(CCCOC(=O)c2ccccc2)CC1)c1ccccc1 | inactive | > 100 µM |  |
| COc1ccc(C(=O)OCCCN2CCN(C)CC2)cc1 | inactive | > 100 µM |  |
| COc1ccc(C(=O)OCCCN2CCCN(CCCOC(=O)c3ccc(OC)cc3)CC2)cc1 | inactive | > 93 µM |  |
| COc1cc(C(=O)OCCCN2CCN(CCCOC(=O)c3cc(OC)c(OC)c(OC)c3)CC2)cc(OC)c1OC | inactive | > 100 µM |  |
| COc1ccc(C(=O)OCCCNCCNCCCOC(=O)c2ccc(OC)cc2)cc1 | inactive | > 93 µM and 21.7 µM | 19.8% (inactive) |
| CN1CCN(CCCOC(=O)c2ccccc2)CC1 | inactive | > 100 µM |  |
| COc1cc(C(=O)OCCCN2CCN(C)CC2)cc(OC)c1OC | inactive | > 100 µM |  |
| CN1CCN(CCCOC(=O)c2ccc(F)cc2)CC1 | inactive | > 100 µM |  |
| COc1cc(C(=O)OCCCN2CCCC2)cc(OC)c1OC | inactive | > 100 µM |  |
| COc1ccc(C(=O)OCCN2CCCN(CCOC(=O)c3ccc(OC)cc3)CC2)cc1 | inactive | > 100 µM |  |
| COc1cc(C(=O)OCCN2CCN(C)CC2)cc(OC)c1OC | inactive | > 100 µM |  |
| COc1cc(C(=O)OCCN2CCCN(CCOC(=O)c3cc(OC)c(OC)c(OC)c3)CC2)cc(OC)c1OC | inactive | > 100 µM |  |
| COc1cc(C(=O)NCCCN2CCCN(CCCNC(=O)c3cc(OC)c(OC)c(OC)c3)CC2)cc(OC)c1OC |  | > 100 µM | 16% (inactive) |
| COc1cc(C(=O)OCCCN2CCCN(Cc3ccccc3)CC2)cc(OC)c1OC | inactive | > 100 µM |  |
| COc1cc(C(=O)OCCN2CCCN(C)CC2)cc(OC)c1OC | inactive | > 100 µM |  |
| NCCCN1CCCN(CCCN)CC1 | inactive | > 100 µM |  |
| O=C(/C=C/c1ccc2c(c1)OCO2)N1CCCN(C(=O)/C=C/c2ccc3c(c2)OCO3)CC1 | inactive | > 100 µM |  |
| COc1cc(CN2CCCN(Cc3cc(OC)c(OC)c(OC)c3)CC2)cc(OC)c1OC | inactive | > 100 µM |  |
| COc1cc(OC)cc(C(=O)OCCN2CCOCC2)c1 | inactive | > 100 µM |  |
| COc1cc(OC)cc(C(=O)OCCN2CCCC2)c1 | inactive | > 100 µM |  |
